Assay results taken from patent US20250127787A1, “METHODS FOR TREATING PERIPHERAL NEUROPATHY” (University of Pittsburgh - Of the Commonwealth System of …, priority 2021, published 2025).

Test system: CD68
Assay: CD68 expression in PAC-CIPN rat spinal cord, Western immunoblotting
Format: in vivo
Conditions: 8-AG 5 mg/kg/day in drinking water
Procedure: Animals: This study employed female Harlan Sprague Dawley (HSD) rats (3-4 mo; Envigo, Indianapolis, IN) and were divided into the following groups: 1) Control, 2) Cyclophosphamide (CYP, 75 mg/kg i.p. in saline vehicle; administered on days 0, 3 and 6 until sacrifice on day 8); 4) Paclitaxel (2 mg/kg i.p., 2 mg/kg i.p. in saline from a stock solution of 50/50 CremophorEL/ethanol); administered on days 0, 2, 4 and 6 until sacrifice on day 8; 4) 8-aminoguanine (8-AG; 5 mg/kg/day in drinking water; beginning 2 weeks prior to either CYP or PAC and continuing until sacrifice (day 8)). The dose of 8-AG was based on the experiments described above. […] All tissues (spinal cord and hindpaw epidermis) were removed from isoflurane anesthetized rats and the tissue was used for various experimental approaches as described below. At the end of tissue removal, animals were sacrificed by thoracotomy. […]

For `Nc1nc2[nH]c(N)nc2c(=O)[nH]1` [8-AG, 8-Aminoguanine], the “effect on PAC-induced increase in CD68 expression” value was “significantly reduced”.
